These results are taken from article PMC3261798, “Design, Synthesis, and Biological Evaluation of PKD Inhibitors” (Pharmaceutics, 2011).

Data set [1] has as its target T1, PKD1 (Homo sapiens, UniProt Q15139).
T1 sequence (Q15139 1-912): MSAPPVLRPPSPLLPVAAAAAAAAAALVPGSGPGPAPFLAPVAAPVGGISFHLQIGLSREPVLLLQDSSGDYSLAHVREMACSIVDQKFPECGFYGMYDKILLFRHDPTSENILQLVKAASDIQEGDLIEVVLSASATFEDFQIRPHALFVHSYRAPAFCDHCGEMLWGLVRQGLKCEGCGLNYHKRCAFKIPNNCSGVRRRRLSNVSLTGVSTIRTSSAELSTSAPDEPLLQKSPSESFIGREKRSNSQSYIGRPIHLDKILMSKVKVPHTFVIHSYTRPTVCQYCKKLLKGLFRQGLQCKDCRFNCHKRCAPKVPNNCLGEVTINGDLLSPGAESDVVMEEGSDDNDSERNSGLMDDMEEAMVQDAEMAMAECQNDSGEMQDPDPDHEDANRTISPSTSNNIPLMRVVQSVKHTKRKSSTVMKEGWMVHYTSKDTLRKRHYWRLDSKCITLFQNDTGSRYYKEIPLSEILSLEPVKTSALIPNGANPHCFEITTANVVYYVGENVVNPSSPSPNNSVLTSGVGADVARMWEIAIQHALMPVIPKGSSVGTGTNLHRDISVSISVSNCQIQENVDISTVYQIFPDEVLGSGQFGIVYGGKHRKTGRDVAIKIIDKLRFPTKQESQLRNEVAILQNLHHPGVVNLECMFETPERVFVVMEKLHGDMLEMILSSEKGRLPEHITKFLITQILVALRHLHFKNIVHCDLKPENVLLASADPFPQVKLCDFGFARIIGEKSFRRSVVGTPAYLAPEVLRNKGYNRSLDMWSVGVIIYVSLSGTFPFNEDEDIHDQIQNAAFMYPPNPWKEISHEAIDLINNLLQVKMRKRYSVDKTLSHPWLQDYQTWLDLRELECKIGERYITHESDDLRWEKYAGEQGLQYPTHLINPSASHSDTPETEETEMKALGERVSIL
The experiment in a line: % PKD1 activity at 1 μM (single concentration; assay format not stated). Format: biochemical. As to conditions: compound at 1 μM.

Data set [2] deals with T1, PKD1. Nature of the data set: In vitro radiometric PKD kinase activity assay. More on the design: purchased Biomol International. Format: biochemical. On the procedure:
In vitro radiometric PKD kinase assays were conducted as previously described. Briefly, 50 ng recombinant human PKD1 (Biomol International, Plymouth Meeting, PA, USA) was incubated at 30 °C for 10 min with a reaction mixture containing 2.5 μg syntide-2 (Sigma), 70 μM ATP, and 1 μCi γ-^32 P-ATP (PerkinElmer, Boston, MA, USA) in kinase buffer (50 mM Tris-HCl pH 7.5, […], and 10 mM […]). 25 μL of the reaction mixture was then spotted on Whatman P81 filter paper (Whatman Inc., Clifton, NJ, USA), and filter papers were washed three times with 0.5% phosphoric acid, dried, then counted using a Beckman LS6500 multi-purpose scintillation counter.

In data set [3] the target is T1, PKD1. The experiment in a line: Cellular PKD1 inhibition: densitometry of Western blots for PKD1 autophosphorylation at S916 in PMA-stimulated LNCaP cells. Format: cell-based. As for the experimental part: Inhibition of PKD 1 in cells was determined by densitometry analysis of Western blotting data for PKD1 autophosphorylation at Ser^916 in LNCaP cells as previously described. LNCaP cells were pre-treated with PKD inhibitors for 45 min at various concentrations, and then stimulated with 10 nM phorbol 12-myristate 13-acetate (PMA) for 20 min. Cells were then collected and lysed in lysis buffer containing 200 mM Tris-HCl, pH 7.4, 100 μM 4-(2-aminoethyl) benzenesulfonyl fluoride, 1 mM EGTA, and 1% Triton X-100. Cell lysates were probed by Western blot analysis using primary antibodies targeting p-S916-PKD1 (Millipore), PKD1 (Cell Signaling Technology), or GAPDH. Densitometry analysis of visualized bands was used to determine the cellular IC50 values for PKD1 inhibition.

For data set [4], the target named is T1, PKD1. The experiment in a line: IMAP-based PKD Fluorescence Polarization (FP) assay, automated HTS format. Format: biochemical. As to conditions: mean ± SEM, n = number of independent experiments. On the procedure: An automated, HTS formatted IMAP-based PKD Fluorescence Polarization (FP) assay was used to assess the specificity of the PKD analogs as previously described. […] Kinase reactions were incubated for 90 min at room temperature and stopped by the addition of IMAP binding reagent. Assay plates were then incubated for 2 h and IMAP-based FP data were captured on a Molecular Devices Spectra-Max M5 (Sunnyvale, CA, USA).
(Polarisation of emitted light reports the rotation of a fluorescent probe.)

The subject of data set [5] is all PKD isoforms. As to conditions: cited from earlier work.
Where [6] appears, read: mean ± SEM, n = number of independent experiments, read-out: IC50 Radiometric PKD1.
[7] abbreviates: PKD1 autophosphorylation at S916 in LNCaP cells, mean ± SEM.

“And” between values parts separate entries of the source, which are not always exact repeats. Equal values may be shown once.

As a reminder, the remaining activity is the share of the control activity or signal that is left under treatment. A high value points to a small loss of activity. In general, melting point refers to the temperature of the solid-liquid transition. By IC50 is commonly meant the midpoint of a concentration-inhibition curve.

For `O=C1NCCCOc2c1sc1ccc(OCc3ccccc3)cc21` [kb-NB184-36, 2,3,4,5-Tetrahydro-10-benzyloxybenzo[b]thieno[2,3-f]-1,5-oxazocin-6-one], the melting point was 195 to 200 °C. In data set [1], this compound showed a remaining activity at 1 µM of 83.3 ± 3.8%.
Consider `O=C1NCCCSc2c1sc1ccc(O)cc21` [kb-NB165-92, 2,3,4,5-Tetrahydro-10-hydroxybenzo[b]thieno[2,3-f]-1,5-thiazocin-6-one], for which the IC50 in data set [2] (setting [6]) stood at 110 ± 10 nM; in data set [3] (setting [7]) it was 2560 ± 660 nM. The same compound yielded a remaining activity at 1 µM in data set [1] of 16.7%.
Take `O=C1NCCSc2c1sc1ccc(O)c(Br)c21` [kb-NB184-52, 3,4-Dihydro-9-hydroxy-10-bromo-[1]benzothieno[2,3-f]-1,4-thiazepin-5(2H)-one]: the melting point is 235 to 238 °C (dec.). The IC50 in data set [2] (setting [6]) came to 48 nM. The compound further returned a remaining activity at 1 µM in data set [1] of 12.7 ± 0.2%.
The like results for `COc1ccc2sc3c(c2c1)SCCCNC3=O` [kb-NB184-02, 2,3,4,5-Tetrahydro-10-methoxybenzo[b]thieno[2,3-f]-1,5-thiazocin-6-one] were, in that order, 185 to 188 °C, 190 ± 30 nM and 29.5%.
On to `O=C1NCCCc2c1[nH]c1ccc(O)cc21` [kb-NB123-57, 3,4,5,10-Tetrahydro-7-hydroxy-azepino[3,4-b]indol-1(2H)-one], for which the IC50 was found to be 2140 ± 120 nM in data set [4] and 130 ± 10 nM in data set [2] (setting [6]). In addition, the “IC50 Cellular PKD1” value in data set [3] (setting [7]) is “no significant cellular activity”.
With `Oc1ccc2sc3c(c2c1)SCCNC3` [kb-NB165-83, 2,3,4,5-Tetrahydro-9-hydroxy-[1]benzothieno[2,3-f]-1,4-thiazepine], the melting point was 182 to 184 °C (dec.). For the same compound, in data set [2] (setting [6]), the IC50 amounted to 16400 nM. This compound had a remaining activity at 1 µM in data set [1] of 92.4%.
Taken in the same sequence, the figures for `O=C1NCCCSc2c1sc1ccc(OCc3ccccc3)cc21` [kb-NB165-89, 2,3,4,5-Tetrahydro-10-benzyloxybenzo[b]thieno[2,3-f]-1,5-thiazocin-6-one] were 198 to 199 °C, 21700 nM and 84.3%.
Turning to `C[C@H](C#N)Nc1cccc(-c2cc(-c3ccc(CNC4CCOCC4)cc3)on2)c1` [Compound 2b], in data set [5], the “IC50s, all PKD isoforms” value was “low nanomolar”; the “fold preference for PKD1 versus PKD2” value is 9 fold; the “fold preference for PKD1 versus PKD3” value was 3 fold.
The compound `COC(=O)c1sc2ccc(OC)cc2c1NCCCO` [kb-NB184-80, Methyl 3-(3-hydroxypropylamino)-5-methoxybenzo[b]thiophene-2-carboxylate] yielded a melting point of 116 to 120 °C. For the same compound, the “IC50 Radiometric PKD1” value in data set [2] (mean ± SEM, n = number of independent experiments) is “not inhibitory”. This compound also displayed a remaining activity at 1 µM in data set [1] of 91.3 ± 1.5%.
On to `c1ccc(COc2ccc3sc4c(c3c2)SCCNC4)cc1` [kb-NB165-81, 2,3,4,5-Tetrahydro-9-benzyloxy-[1]benzothieno[2,3-f]-1,4-thiazepine], for which the melting point was in the range of 144 to 145 °C. Besides, in data set [2] (setting [6]), the IC50 stood at 39600 nM. In addition, the remaining activity at 1 µM in data set [1] came to 78.3%.
Regarding `[N-]=[N+]=Nc1ccc2sc3c(c2c1)SCCNC3=O` [mcf292-08, 3,4-Dihydro-9-azido-[1]benzothieno[2,3-f]-1,4-thiazepin-5(2H)-one], the melting point is 193 °C (dec.). The IC50 in data set [2] (in vitro, read-out: PKD1 IC50) is 74.9 nM. For the same compound, the IC50 in data set [2] (setting [6]) was 80 ± 10 nM. Further, the IC50 in data set [3] (setting [7]) was 2200 nM and 2170 nM.
As for `O=C1NCCSc2c1sc1ccc(O)c(I)c21` [kb-NB165-31, 3,4-Dihydro-9-hydroxy-10-iodo-[1]benzothieno[2,3-f]-1,4-thiazepin-5(2H)-one], the melting point was 128 °C (dec.). The IC50 in data set [2] (in vitro, read-out: PKD1 IC50) turned out to be 114 nM. The IC50 in data set [2] (setting [6]) came to 110 ± 20 nM. For the same compound, in data set [3] (relative to kb-NB142-70), the “fold lower cellular activity than kb-NB142-70” value came to 4 fold. The compound further displayed a remaining activity at 1 µM in data set [1] of 13.6%.
Turning to `COc1cccc2c3c(sc12)C(=O)NCCS3` [kb-NB184-44, 3,4-Dihydro-7-methoxy-[1]benzothieno[2,3-f]-1,4-thiazepin-5(2H)-one], the melting point is 220 to 224 °C. This compound came in with a remaining activity at 1 µM in data set [1] of 77.5 ± 3.6%.
`COc1ccc2c(c1)c1c([s+]2[O-])C(=O)NCCS1` (stereo not shown) [kb-NB184-25, 3,4-Dihydro-9-methoxy-6-oxide-[1]benzothieno[2,3-f]-1,4-thiazepin-5(2H)-one]: the melting point lay within 284 to 287 °C. The half-inhibitory concentration (IC50) in data set [2] (setting [6]) is 1080 nM. The remaining activity at 1 µM in data set [1] stood at 50.4 ± 2.3%.
`NC(=O)c1cc(-c2ccnc(NC3CCCCC3)c2)nc(N2CCNCC2)c1` [BPKDi]: the “IC50 values, all three isoforms of PKD” value in data set [5] is “single digit nanomolar”.
Compound `COc1ccc2sc3c(c2c1)OCCCNC3=O` [kb-NB184-57, 2,3,4,5-Tetrahydro-10-methoxybenzo[b]thieno[2,3-f]-1,5-oxazocin-6-one] showed a melting point of 233 to 237 °C. In addition, the remaining activity at 1 µM in data set [1] worked out at 62 ± 3.5%.
Turning to `O=C1NCCSc2c1[s+]([O-])c1ccc(O)cc21` (stereo not shown) [kb-NB184-22, 3,4-Dihydro-9-hydroxy-6-oxide-[1]benzothieno[2,3-f]-1,4-thiazepin-5(2H)-one], the melting point was 160 to 163 °C (dec.). The compound further gave a remaining activity at 1 µM in data set [1] of 66.5 ± 6.1%.
The like results for `COc1ccc2sc3c(c2c1)[S+]([O-])CCNC3=O` (stereo not shown) [kb-NB184-45, 3,4-Dihydro-9-methoxy-1-oxide-[1]benzothieno[2,3-f]-1,4-thiazepin-5(2H)-one] were, in that order, 215 to 217 °C and 97 ± 16%.
For the compound `CC[C@@H](N)CNc1ccnc(-c2cc(-c3cnn(C)c3)ccc2O)n1.Cl.Cl` [CRT0066101], the “IC50s, all isoforms of PKD” value in data set [5] was “single-digit nanomolar”.
Take `Nc1ccc2sc3c(c2c1)SCCNC3=O` [mcf292-03, 3,4-Dihydro-9-amino-[1]benzothieno[2,3-f]-1,4-thiazepin-5(2H)-one]: the melting point lay within 198.6 to 199 °C. The IC50 in data set [2] (setting [6]) came to 3170 nM. The compound further came in with a remaining activity at 1 µM in data set [1] of 74.4 ± 1.1%.
Regarding `O=C1NCCSc2c1sc1c(O)cccc21` [kb-NB184-40, 3,4-Dihydro-7-hydroxy-[1]benzothieno[2,3-f]-1,4-thiazepin-5(2H)-one], the melting point is 269 to 272 °C (dec.). In addition, in data set [1], the remaining activity at 1 µM is 99 ± 11%.
Taken in the same sequence, the figures for `O=C1NCCSc2c1sc1c(OCc3ccccc3)cccc21` [kb-NB184-38, 3,4-Dihydro-7-benzyloxy-[1]benzothieno[2,3-f]-1,4-thiazepin-5(2H)-one] were 213 to 215 °C and 98.6 ± 4.1%.
As to `NCCN1CCSc2c(sc3ccc(O)cc23)C1=O` [kb-NB165-75, 2,3-Dihydro-4-(2-aminoethyl)-9-hydroxy-[1]benzothieno[2,3-f]-1,4-thiazepin-5(2H)-one], the melting point was 250 to 254 °C. Besides, the IC50 in data set [2] (setting [6]) was 757 nM. The compound further had a remaining activity at 1 µM in data set [1] of 55.6%.
